Data from PMC6429214, “Design, Synthesis and Biological Evaluation of Isoxazole-Based CK1 Inhibitors Modified with Chiral Pyrrolidine Scaffolds” (Molecules, 2019).

Columns and labels:
Test in all cases: 33PanQinase panel
Format in all cases: biochemical
Aurora-C = molecular target: T1, Aurora-C (Homo sapiens, UniProt Q9UQB9); settings: read-out: Residual Activity (%)
T1 construct: purchased ProQinase
Summary of the method: (§1)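 The compound is tested at 1 µM against a panel of 320 wild-type protein kinases. A radiometric, activity-based 33P readout gives kinase activity, reported as residual percentage of the DMSO control; final DMSO is 1%.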

BRSK2 = molecular target: T2, BRSK2 (Homo sapiens, UniProt Q8IWQ3); settings: BRSK2, 1 µM; read-out: Residual Activity (%)
T2 construct: purchased ProQinase
Summary of the method: as §1

BTK = molecular target: T3, BTK (Homo sapiens, UniProt Q06187); settings: read-out: Residual Activity (%)
T3 construct: purchased ProQinase
T3 sequence (Q06187 whole entry): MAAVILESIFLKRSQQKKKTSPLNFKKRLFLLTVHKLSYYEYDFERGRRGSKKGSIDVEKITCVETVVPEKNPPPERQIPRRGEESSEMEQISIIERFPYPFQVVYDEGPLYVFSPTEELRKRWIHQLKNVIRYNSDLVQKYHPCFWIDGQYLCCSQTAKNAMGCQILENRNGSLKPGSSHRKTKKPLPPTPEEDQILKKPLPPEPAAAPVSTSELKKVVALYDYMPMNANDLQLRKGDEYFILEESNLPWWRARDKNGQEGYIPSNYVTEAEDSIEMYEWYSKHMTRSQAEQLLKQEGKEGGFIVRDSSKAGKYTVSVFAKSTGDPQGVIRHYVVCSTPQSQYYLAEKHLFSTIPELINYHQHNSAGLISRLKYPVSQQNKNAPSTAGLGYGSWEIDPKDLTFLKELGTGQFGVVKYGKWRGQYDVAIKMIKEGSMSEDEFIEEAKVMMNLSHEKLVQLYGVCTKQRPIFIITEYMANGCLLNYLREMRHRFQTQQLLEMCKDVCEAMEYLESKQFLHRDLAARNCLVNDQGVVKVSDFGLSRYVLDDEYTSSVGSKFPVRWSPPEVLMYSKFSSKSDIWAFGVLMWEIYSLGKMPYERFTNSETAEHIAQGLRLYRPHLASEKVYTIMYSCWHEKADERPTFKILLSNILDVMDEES
Summary of the method: as §1

CAMK2D = molecular target: T4, CAMK2D (Homo sapiens, UniProt Q13557); settings: read-out: Residual Activity (%)
T4 construct: purchased ProQinase
Summary of the method: as §1

CLK2 = molecular target: T5, CLK2 (Homo sapiens, UniProt P49760); settings: CLK2, 1 µM; read-out: Residual Activity (%)
T5 construct: purchased ProQinase
Summary of the method: as §1

CSF1-R = molecular target: T6, CSF1-R (Homo sapiens, UniProt P07333); settings: read-out: Residual Activity (%)
T6 construct: purchased ProQinase
Summary of the method: as §1

DDR2 = molecular target: T7, DDR2 (Homo sapiens, UniProt Q16832); settings: DDR2, 1 µM; read-out: Residual Activity (%)
T7 construct: purchased ProQinase
Summary of the method: as §1

DYRK1A = molecular target: T8, DYRK1A (Homo sapiens, UniProt Q13627); settings: read-out: Residual Activity (%)
T8 construct: purchased ProQinase
Summary of the method: as §1

DYRK3 = molecular target: T9, DYRK3 (Homo sapiens, UniProt O43781); settings: DYRK3, 1 µM; read-out: Residual Activity (%)
T9 construct: purchased ProQinase
Summary of the method: as §1

GSK3-beta = molecular target: T10, GSK3-beta (Homo sapiens, UniProt P49841); settings: read-out: Residual Activity (%)
T10 construct: purchased ProQinase
Summary of the method: as §1

HCK = molecular target: T11, HCK (Homo sapiens, UniProt P08631); settings: read-out: Residual Activity (%)
T11 construct: purchased ProQinase
Summary of the method: as §1

IKK-beta = molecular target: T12, IKK-beta (Homo sapiens, UniProt O14920); settings: read-out: Residual Activity (%)
T12 construct: purchased ProQinase
T12 sequence (O14920 whole entry): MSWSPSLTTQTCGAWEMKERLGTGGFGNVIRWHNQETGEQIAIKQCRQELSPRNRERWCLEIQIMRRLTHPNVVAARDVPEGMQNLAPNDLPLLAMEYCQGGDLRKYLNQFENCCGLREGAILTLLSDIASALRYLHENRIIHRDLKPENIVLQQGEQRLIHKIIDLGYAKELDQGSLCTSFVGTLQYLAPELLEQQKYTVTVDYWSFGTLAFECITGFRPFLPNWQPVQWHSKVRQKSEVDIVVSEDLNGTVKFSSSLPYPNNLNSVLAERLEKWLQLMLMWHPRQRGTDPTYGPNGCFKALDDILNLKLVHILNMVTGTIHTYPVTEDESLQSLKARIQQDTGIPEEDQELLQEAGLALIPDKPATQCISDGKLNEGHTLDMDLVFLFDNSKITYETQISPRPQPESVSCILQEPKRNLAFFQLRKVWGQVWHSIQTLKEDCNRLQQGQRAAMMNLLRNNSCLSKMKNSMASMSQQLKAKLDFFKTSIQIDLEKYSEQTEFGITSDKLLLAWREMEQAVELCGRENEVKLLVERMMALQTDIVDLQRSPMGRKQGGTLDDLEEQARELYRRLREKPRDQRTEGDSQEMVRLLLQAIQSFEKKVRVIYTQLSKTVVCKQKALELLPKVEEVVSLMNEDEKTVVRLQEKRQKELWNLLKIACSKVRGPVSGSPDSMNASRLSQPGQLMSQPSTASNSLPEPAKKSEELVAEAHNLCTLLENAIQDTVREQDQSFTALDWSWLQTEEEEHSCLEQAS
Summary of the method: as §1

INS-R = molecular target: T13, INS-R (Homo sapiens, UniProt P06213); settings: read-out: Residual Activity (%)
T13 construct: purchased ProQinase
Summary of the method: as §1

ITK = molecular target: T14, ITK (Homo sapiens, UniProt Q08881); settings: read-out: Residual Activity (%)
T14 construct: purchased ProQinase
Summary of the method: as §1

JNK2 = molecular target: T15, JNK2 (Homo sapiens, UniProt P45984); settings: JNK2, 1 µM; read-out: Residual Activity (%)
T15 construct: purchased ProQinase
Summary of the method: as §1

MAPKAPK3 = molecular target: T16, MAPKAPK3 (Homo sapiens, UniProt Q16644); settings: MAPKAPK3, 1 µM; read-out: Residual Activity (%)
T16 construct: purchased ProQinase
Summary of the method: as §1

MATK = molecular target: T17, MATK (Homo sapiens, UniProt P42679); settings: read-out: Residual Activity (%)
T17 construct: purchased ProQinase
Summary of the method: as §1

MST1 = molecular target: T18, MST1 (Homo sapiens, UniProt Q13043); settings: MST1, 1 µM; read-out: Residual Activity (%)
T18 construct: purchased ProQinase
Summary of the method: as §1

NEK11 = molecular target: T19, NEK11 (Homo sapiens, UniProt Q8NG66); settings: NEK11, 1 µM; read-out: Residual Activity (%)
T19 construct: purchased ProQinase
T19 sequence (Q8NG66 whole entry): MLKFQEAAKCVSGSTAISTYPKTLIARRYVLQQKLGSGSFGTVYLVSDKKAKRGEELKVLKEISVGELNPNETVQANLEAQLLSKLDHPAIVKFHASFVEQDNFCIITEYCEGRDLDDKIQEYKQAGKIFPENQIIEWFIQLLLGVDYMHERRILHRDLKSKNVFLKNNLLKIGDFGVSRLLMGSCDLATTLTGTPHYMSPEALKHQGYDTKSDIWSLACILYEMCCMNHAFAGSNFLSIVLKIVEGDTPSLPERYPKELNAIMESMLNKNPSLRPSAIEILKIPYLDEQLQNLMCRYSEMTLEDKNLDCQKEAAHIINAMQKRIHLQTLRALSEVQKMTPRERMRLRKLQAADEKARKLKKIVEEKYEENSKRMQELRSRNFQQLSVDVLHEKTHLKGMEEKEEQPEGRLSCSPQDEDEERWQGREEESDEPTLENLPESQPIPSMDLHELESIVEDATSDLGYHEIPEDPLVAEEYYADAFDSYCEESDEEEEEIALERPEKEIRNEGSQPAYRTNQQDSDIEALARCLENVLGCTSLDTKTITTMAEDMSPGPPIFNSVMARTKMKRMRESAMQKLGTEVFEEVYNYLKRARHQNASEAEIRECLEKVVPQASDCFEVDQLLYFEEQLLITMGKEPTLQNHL
Summary of the method: as §1

PAK2 = molecular target: T20, PAK2 (Homo sapiens, UniProt Q13177); settings: PAK2, 1 µM; read-out: Residual Activity (%)
T20 construct: purchased ProQinase
Summary of the method: as §1

PKC-zeta = molecular target: T21, PKC-zeta (Homo sapiens, UniProt Q05513); settings: read-out: Residual Activity (%)
T21 construct: purchased ProQinase
Summary of the method: as §1

PRK2 = molecular target: T22, PRK2 (Homo sapiens, UniProt Q16513); settings: PRK2, 1 µM; read-out: Residual Activity (%)
T22 construct: purchased ProQinase
T22 sequence (Q16513 whole entry): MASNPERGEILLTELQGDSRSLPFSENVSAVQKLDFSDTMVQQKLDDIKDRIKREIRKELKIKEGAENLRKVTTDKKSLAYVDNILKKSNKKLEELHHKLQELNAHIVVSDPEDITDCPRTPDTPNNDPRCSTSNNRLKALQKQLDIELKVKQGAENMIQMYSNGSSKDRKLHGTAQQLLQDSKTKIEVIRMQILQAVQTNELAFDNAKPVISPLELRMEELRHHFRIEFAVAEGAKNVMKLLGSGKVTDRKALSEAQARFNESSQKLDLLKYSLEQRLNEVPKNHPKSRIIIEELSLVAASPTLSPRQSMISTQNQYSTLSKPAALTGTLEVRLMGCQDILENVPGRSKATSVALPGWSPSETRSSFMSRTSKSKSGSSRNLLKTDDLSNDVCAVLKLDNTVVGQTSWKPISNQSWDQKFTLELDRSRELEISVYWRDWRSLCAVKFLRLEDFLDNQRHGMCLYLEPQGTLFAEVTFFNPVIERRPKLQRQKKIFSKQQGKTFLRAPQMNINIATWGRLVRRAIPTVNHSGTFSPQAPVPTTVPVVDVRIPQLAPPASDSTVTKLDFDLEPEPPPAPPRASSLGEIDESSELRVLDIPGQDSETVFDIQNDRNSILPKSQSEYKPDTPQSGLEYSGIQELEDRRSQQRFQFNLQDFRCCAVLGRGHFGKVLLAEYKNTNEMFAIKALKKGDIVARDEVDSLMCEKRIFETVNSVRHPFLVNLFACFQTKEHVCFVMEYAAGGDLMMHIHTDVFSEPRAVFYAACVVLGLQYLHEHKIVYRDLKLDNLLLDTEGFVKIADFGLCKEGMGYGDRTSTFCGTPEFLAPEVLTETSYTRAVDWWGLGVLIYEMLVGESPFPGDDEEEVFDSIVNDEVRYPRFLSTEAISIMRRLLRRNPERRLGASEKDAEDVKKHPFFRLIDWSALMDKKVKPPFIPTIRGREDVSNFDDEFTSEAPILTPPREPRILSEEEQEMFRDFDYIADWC
Summary of the method: as §1

S6K = molecular target: T23, S6K (Homo sapiens, UniProt P23443); settings: read-out: Residual Activity (%)
T23 construct: purchased ProQinase
Summary of the method: as §1

SIK1 = molecular target: T24, SIK1 (Homo sapiens, UniProt P57059); settings: SIK1, 1 µM; read-out: Residual Activity (%)
T24 construct: purchased ProQinase
T24 sequence (P57059 whole entry): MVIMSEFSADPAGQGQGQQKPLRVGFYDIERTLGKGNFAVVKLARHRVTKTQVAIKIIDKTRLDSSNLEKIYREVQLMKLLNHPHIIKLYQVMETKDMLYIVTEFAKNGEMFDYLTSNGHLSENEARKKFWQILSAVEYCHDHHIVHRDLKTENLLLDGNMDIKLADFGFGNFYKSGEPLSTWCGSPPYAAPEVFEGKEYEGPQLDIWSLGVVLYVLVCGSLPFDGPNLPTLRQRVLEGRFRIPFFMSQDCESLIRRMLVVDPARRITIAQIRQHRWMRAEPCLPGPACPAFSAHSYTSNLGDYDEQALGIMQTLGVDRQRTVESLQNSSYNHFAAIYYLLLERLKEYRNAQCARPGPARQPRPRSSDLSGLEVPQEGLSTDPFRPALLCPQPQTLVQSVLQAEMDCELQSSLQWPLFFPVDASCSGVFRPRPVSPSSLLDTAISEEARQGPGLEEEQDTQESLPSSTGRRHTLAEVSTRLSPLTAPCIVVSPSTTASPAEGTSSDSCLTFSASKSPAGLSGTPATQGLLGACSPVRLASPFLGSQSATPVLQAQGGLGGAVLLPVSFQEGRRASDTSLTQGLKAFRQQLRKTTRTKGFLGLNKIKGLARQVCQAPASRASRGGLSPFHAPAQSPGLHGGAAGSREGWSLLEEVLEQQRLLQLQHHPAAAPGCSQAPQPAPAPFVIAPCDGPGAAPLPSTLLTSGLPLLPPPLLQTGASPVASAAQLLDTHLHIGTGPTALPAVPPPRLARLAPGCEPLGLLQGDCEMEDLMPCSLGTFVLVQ
Summary of the method: as §1

SRPK2 = molecular target: T25, SRPK2 (Homo sapiens, UniProt P78362); settings: SRPK2, 1 µM; read-out: Residual Activity (%)
T25 construct: purchased ProQinase
Summary of the method: as §1

STK17A = molecular target: T26, STK17A (Homo sapiens, UniProt Q9UEE5); settings: read-out: Residual Activity (%)
T26 construct: purchased ProQinase
Summary of the method: as §1

TAOK3 = molecular target: T27, TAOK3 (Homo sapiens, UniProt Q9H2K8); settings: TAOK3, 1 µM; read-out: Residual Activity (%)
T27 construct: purchased ProQinase
Summary of the method: as §1

TIE2 = molecular target: T28, TIE2 (Homo sapiens, UniProt Q02763); settings: TIE2, 1 µM; read-out: Residual Activity (%)
T28 construct: purchased ProQinase
Summary of the method: as §1

TSK2 = molecular target: T29, TSK2 (Homo sapiens, UniProt Q96PF2); settings: TSK2, 1 µM; read-out: Residual Activity (%)
T29 construct: purchased ProQinase
T29 sequence (Q96PF2 whole entry): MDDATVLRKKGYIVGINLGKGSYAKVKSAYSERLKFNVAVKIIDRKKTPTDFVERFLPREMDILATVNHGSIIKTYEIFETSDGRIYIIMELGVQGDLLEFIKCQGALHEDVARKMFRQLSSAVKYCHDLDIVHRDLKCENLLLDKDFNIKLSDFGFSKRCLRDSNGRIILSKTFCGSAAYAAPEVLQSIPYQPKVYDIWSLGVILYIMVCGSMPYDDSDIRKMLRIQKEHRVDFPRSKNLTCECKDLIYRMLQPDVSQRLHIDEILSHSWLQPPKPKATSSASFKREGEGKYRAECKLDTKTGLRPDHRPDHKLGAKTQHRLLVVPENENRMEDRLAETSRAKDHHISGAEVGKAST
Summary of the method: as §1

VRK1 = molecular target: T30, VRK1 (Homo sapiens, UniProt Q99986); settings: VRK1, 1 µM; read-out: Residual Activity (%)
T30 construct: purchased ProQinase
Summary of the method: as §1

ZAK = molecular target: T31, ZAK (Homo sapiens, UniProt Q9NYL2); settings: read-out: Residual Activity (%)
T31 construct: purchased ProQinase
T31 sequence (Q9NYL2 whole entry): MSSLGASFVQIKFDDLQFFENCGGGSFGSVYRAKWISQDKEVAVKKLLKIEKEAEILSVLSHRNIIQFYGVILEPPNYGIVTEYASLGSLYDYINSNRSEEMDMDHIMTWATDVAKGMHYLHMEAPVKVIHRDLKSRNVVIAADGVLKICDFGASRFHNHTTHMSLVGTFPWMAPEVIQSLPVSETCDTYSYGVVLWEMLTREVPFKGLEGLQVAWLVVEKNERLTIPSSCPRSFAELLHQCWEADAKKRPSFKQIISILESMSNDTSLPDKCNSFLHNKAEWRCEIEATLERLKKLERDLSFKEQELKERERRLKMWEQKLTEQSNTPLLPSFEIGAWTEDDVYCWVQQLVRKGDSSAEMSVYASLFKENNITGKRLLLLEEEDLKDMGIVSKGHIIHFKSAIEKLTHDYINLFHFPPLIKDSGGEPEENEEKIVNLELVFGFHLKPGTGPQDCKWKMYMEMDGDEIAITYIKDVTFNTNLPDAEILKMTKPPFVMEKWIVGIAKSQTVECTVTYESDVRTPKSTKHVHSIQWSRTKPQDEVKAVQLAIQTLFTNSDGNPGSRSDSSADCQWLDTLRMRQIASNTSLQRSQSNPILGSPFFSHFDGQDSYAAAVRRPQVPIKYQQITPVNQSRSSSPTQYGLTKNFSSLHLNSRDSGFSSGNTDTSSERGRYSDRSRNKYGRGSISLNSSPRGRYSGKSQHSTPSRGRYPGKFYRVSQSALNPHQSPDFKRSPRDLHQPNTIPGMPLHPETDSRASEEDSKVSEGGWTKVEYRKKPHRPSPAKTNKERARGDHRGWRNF
Summary of the method: as §1

SMILES: COc1ccc(-c2cc(C(=O)Nc3cc(-c4c(-c5ccc(F)cc5)noc4C(C)C)ccn3)n(CC3NCC(O)C3O)c2)cc1 (stereo not shown) [29d]
- remaining activity at 1 µM (Aurora-C): 97%
- remaining activity at 1 µM (BRSK2): 90%
- remaining activity at 1 µM (BTK): 112%
- remaining activity at 1 µM (CAMK2D): 100%
- remaining activity at 1 µM (CLK2): 116%
- remaining activity at 1 µM (CSF1-R): 108%
- remaining activity at 1 µM (DDR2): 95%
- remaining activity at 1 µM (DYRK1A): 120%
- remaining activity at 1 µM (DYRK3): 106%
- remaining activity at 1 µM (GSK3-beta): 100%
- remaining activity at 1 µM (HCK): 110%
- remaining activity at 1 µM (IKK-beta): 92%
- remaining activity at 1 µM (INS-R): 101%
- remaining activity at 1 µM (ITK): 114%
- remaining activity at 1 µM (JNK2): 40%
- remaining activity at 1 µM (MAPKAPK3): 91%
- remaining activity at 1 µM (MATK): 167%
- remaining activity at 1 µM (MST1): 101%
- remaining activity at 1 µM (NEK11): 100%
- remaining activity at 1 µM (PAK2): 107%
- remaining activity at 1 µM (PKC-zeta): 123%
- remaining activity at 1 µM (PRK2): 88%
- remaining activity at 1 µM (S6K): 102%
- remaining activity at 1 µM (SIK1): 92%
- remaining activity at 1 µM (SRPK2): 107%
- remaining activity at 1 µM (STK17A): 102%
- remaining activity at 1 µM (TAOK3): 96%
- remaining activity at 1 µM (TIE2): 110%
- remaining activity at 1 µM (TSK2): 99%
- remaining activity at 1 µM (VRK1): 117%
- remaining activity at 1 µM (ZAK): 116%
